Assay results as given in patent EP4635952A1, “SOLID FORM OF N-SUBSTITUTED PHENYLSULFONAMIDE COMPOUND” (Shanghai Leado Pharmatech Co. Ltd., priority 2022, dated 2024).
Where a name gives a salt, the structure may show the parent alone. Read-outs that look alike come from different tables or passages of the source.

Experiments:
Assay type in all cases: physicochemical
[1] = Solid-state stability (HPLC purity and XRPD crystal form on storage); details: for Purity (area %) / Initial purity (area %): HPLC; for Initial purity (area %): starting sample before storage
Procedure: About 10 mg of each solid form of the compound was weighed and added to the HPLC vial, respectively, the bottleneck was sealed with a sealing film, and 10 small holes were made on the film. The vial was placed in 25° C/60% RH and 40° C/75% RH environment for 4 weeks, samples were taken in the 1st week, the 2rd week and the 4th week respectively, the purity (by HPLC analysis) and crystal form (by X ray powder diffraction analysis) of the sample were investigated. […]

[2] = Hygroscopicity by dynamic moisture absorption (DVS); details: 25°C/80% RH; for moisture adsorption: DVS, 0% RH-95% RH adsorption curve; for hygroscopicity classification: criteria of 2015 edition of the Chinese Pharmacopoeia (Guidelines for Drug Hygroscopicity Test)
Procedure: Dynamic moisture adsorption (DVS) analysis: the instrument is a DVS Intrinsic produced by SMS company (Surface Measurement Systems); temperature, 25° C.; carrier gas, flow rate: nitrogen, 200 mL/min; mass change per unit time: 0.002%/min; relative humidity range: 0%RH-95%RH.
Dynamic moisture absorption (DVS) was used to test their hygroscopicity.

[3] = Approximate solubility in purified water
Procedure: To determine the approximate solubility, the corresponding solid form sample was added to a 3 mL glass vial. Purified water was incrementally introduced (50, 50, 200, and 700 µL) while vortexing and ultrasonically agitating to facilitate dissolution. […] Solvent addition was halted either when full dissolution was achieved or when the total water volume reached 1 mL. The approximate solubility was then calculated based on the final solvent volume used.

[4] = Dynamic solubility in biorelevant media SGF, FaSSIF or water; details: 37°C, dosed at 10 mg/mL, 1-24 hours, Figure 31
Procedure: The dynamic solubility of fumarate crystal form B, hydrochloride crystal form C, sulfate crystal form D, succinate crystal form E, malate crystal form F, and free crystal form A was assessed at 37°C in biorelevant media SGF, FaSSIF or water. All samples were dosed at 10 mg/mL in each solvent. The samples were sealed and mounted on a rotating disk rotating at 25 rpm, and the rotating disk was placed in a 37° C. incubator. Samples were taken at time points 1, 2, 4, and 24 hours of equilibration, and the filtrate was separated and tested concentration by HPLC and pH, while isolated solids were characterized by XRPD.

[5] = 25°C/60% RH and 40°C/75% RH, 4 weeks

Row | Structure (SMILES) | Purity (area %) ([1]; 25°C /60%RH/open, 1 week) | Purity (area %) ([1]; 25°C /60%RH/open, 2 weeks) | Purity (area %) ([1]; 25°C /60%RH/open, 4 weeks) | Purity (area %) ([1]; 40°C /75%RH/open, 1 week) | Purity (area %) ([1]; 40°C /75%RH/open, 2 weeks) | Purity (area %) ([1]; 40°C /75%RH/open, 4 weeks) | Initial purity (area %) [1] [area %] | moisture adsorption [2] [%] | hygroscopicity classification [2] | Solubility [3] | HPLC purity [1, 5] | crystal form (XRPD) before and after placement [1, 5] | dynamic solubility ([4]; FaSSIF) | dynamic solubility ([4]; water) | Solubility ([3]; listed as Free form crystal A)
1 | CNCc1ccc(NS(=O)(=O)c2ccsc2)c(-c2ccco2)c1 [Phosphate crystal form G, N-(2-(furan-2-yl)-4-((methylamino)methyl)phenyl)thiophene-3-sulfonamide] | 98.11 | 98.09 | 98.04 | 98.11 | 98.06 | 98.01 | 98.11 | – | – | – | – | – | – | – | –
2 | CNCc1ccc(NS(=O)(=O)c2ccsc2)c(-c2ccco2)c1 [sulfate crystal form D, N-(2-(furan-2-yl)-4-((methylamino)methyl)phenyl)thiophene-3-sulfonamide] | 98.74 | 98.65 | 98.78 | 98.76 | 98.65 | 98.78 | 98.77 | 1.3 | slightly hygroscopic | – | – | – | – | – | –
3 | CNCc1ccc(NS(=O)(=O)c2ccsc2)c(-c2ccco2)c1 [fumarate crystal form B, N-(2-(furan-2-yl)-4-((methylamino)methyl)phenyl)thiophene-3-sulfonamide] | 98.53 | 98.47 | 98.57 | 98.4 | 98.5 | 98.52 | 98.55 | 0.2 | slightly hygroscopic | – | – | – | – | – | –
4 | CNCc1ccc(NS(=O)(=O)c2ccsc2)c(-c2ccco2)c1 [hydrochloride crystal form C, N-(2-(furan-2-yl)-4-((methylamino)methyl)phenyl)thiophene-3-sulfonamide] | 98.97 | 98.92 | 98.87 | 99.02 | 98.9 | 99 | 99.02 | 5.5 | hygroscopic | – | – | – | – | – | –
5 | CNCc1ccc(NS(=O)(=O)c2ccsc2)c(-c2ccco2)c1 [Pyroglutamate crystal form I, N-(2-(furan-2-yl)-4-((methylamino)methyl)phenyl)thiophene-3-sulfonamide] | 98.61 | 98.58 | 98.57 | 98.61 | 98.54 | 98.32 | 98.61 | – | – | S>38.0 mg/mL | – | – | – | – | –
6 | CNCc1ccc(NS(=O)(=O)c2ccsc2)c(-c2ccco2)c1 [Malonate crystal form K, N-(2-(furan-2-yl)-4-((methylamino)methyl)phenyl) thiophene-3-sulfonamide] | 98.64 | 98.61 | 98.59 | 98.64 | 98.58 | 98.46 | 98.64 | – | – | – | – | – | – | – | –
7 | CNCc1ccc(NS(=O)(=O)c2ccsc2)c(-c2ccco2)c1 [malate crystal form F, N-(2-(furan-2-yl)-4-((methylamino)methyl)phenyl)thiophene-3-sulfonamide] | 98.72 | 98.7 | 98.79 | 98.74 | 98.75 | 98.68 | 98.72 | 1.4 | slightly hygroscopic | – | – | – | – | – | –
8 | CNCc1ccc(NS(=O)(=O)c2ccsc2)c(-c2ccco2)c1 [succinate crystal form E, N-(2-(furan-2-yl)-4-((methylamino)methyl)phenyl)thiophene-3-sulfonamide] | 98.92 | 98.86 | 98.94 | 98.92 | 98.72 | 98.98 | 98.82 | 0.6 | slightly hygroscopic | – | – | – | – | – | –
9 | CNCc1ccc(NS(=O)(=O)c2ccsc2)c(-c2ccco2)c1 [free crystal form A, N-(2-(furan-2-yl)-4-((methylamino)methyl)phenyl)thiophene-3-sulfonamide] | 98.18 | 98.14 | 98.1 | 98.19 | 98.2 | 98.13 | 98.11 | 1.6 | slightly hygroscopic | – | did not decrease significantly | no detectable crystalline phase changes | negligible dissolution | negligible dissolution | S<2.0 mg/mL
10 | CNCc1ccc(NS(=O)(=O)c2ccsc2)c(-c2ccco2)c1 [Tartrate crystal form H, N-(2-(furan-2-yl)-4-((methylamino)methyl)phenyl)thiophene-3-sulfonamide] | 98.71 | 98.62 | 98.6 | 98.7 | 98.6 | 98.53 | 98.71 | – | – | – | – | – | – | – | –
11 | CNCc1ccc(NS(=O)(=O)c2ccsc2)c(-c2ccco2)c1 [benzene sulfonate crystal form J, N-(2-(furan-2-yl)-4-((methylamino)methyl)-phenyl)thiophene-3-sulfonamide] | 98.87 | 98.85 | 98.82 | 98.87 | 98.82 | 98.79 | 98.87 | – | – | – | – | – | – | – | –
